# Target: T1, human B1R (Homo sapiens, UniProt P46663)
# T1 construct: expressed in transfected cells; host or cells: CHO K1 cells (Chinese Hamster Ovary), stably transfected
# T1 sequence (P46663 1-353): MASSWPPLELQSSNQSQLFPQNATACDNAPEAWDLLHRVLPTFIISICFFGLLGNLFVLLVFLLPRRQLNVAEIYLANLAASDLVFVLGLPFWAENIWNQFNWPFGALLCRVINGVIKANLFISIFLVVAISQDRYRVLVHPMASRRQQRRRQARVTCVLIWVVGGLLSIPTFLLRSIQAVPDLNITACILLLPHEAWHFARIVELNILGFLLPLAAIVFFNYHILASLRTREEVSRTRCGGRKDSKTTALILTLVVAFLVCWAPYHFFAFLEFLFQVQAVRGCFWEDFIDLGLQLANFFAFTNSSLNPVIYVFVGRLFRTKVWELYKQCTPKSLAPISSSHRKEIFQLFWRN
# Experiment: Functional assay at bradykinin receptor 1 (B1R): Ca2+ fluorescence (Fluo-4) in FLIPR/Novostar, antagonist mode
# Assay type: cell-based
# Settings: test substance 10 µM; CHO K1 cells stably transfected with human B1R gene (hB1R-Zellen); agonist Lys-Des-Arg9-Bradykinin at EC80; % inhibition relative to maximal achievable inhibition
# Method: Die agonistische bzw. antagonistische Wirkung von Substanzen kann am Bradykinin Rezeptor 1 (B1R) der Spezies Mensch und Ratte mit ektopisch exprimierenden Zelllinien (CHO K1 Zellen) und mit Hilfe eines Ca^2+-sensitiven Farbstoffs (Fluo-4) im Fluorescent Imaging Plate Reader (FLIPR) quantifiziert werden. Die Angabe in % Aktivierung wird bezogen auf das Ca^2+-Signal nach Zugabe von Lys-Des-Arg^9-Bradykinin ([…]), bzw. Des-Arg^9-Bradykinin (100 nM). Antagonisten führen zu einer Unterdrückung des Ca^2+-Einstroms nach der Zugabe des Agonisten. Angegeben werden % Inhibition im Vergleich zu der maximal erreichbaren Inhibition.
# Die agonistische bzw. antagonistische Wirkung von Substanzen kann am Bradykinin Rezeptor 1 (B1R) der Spezies Mensch und Ratte mit folgendem Assay bestimmt werden. Gemäß diesem Assay wird der intrazelluläre Ca^2+-Anstieg nach Gabe eines B1 R Agonisten mit Hilfe eines Ca^2+-sensitiven Farbstoffs (Typ Fluo-4, Molecular Probes Europe BV, Leiden NL) im Fluorescent Imaging Plate Reader (FLIPR, Molecular Devices, Sunnyvale, USA) und/oder im Novostar (BMG Labtech GmbH, Offenburg, DE) quantifiziert.
# Es werden Chinese Hamster Ovary Zellen (CHO K1 Zellen) verwendet, die stabil mit dem humanen B1 R-Gen (hB1R-Zellen) bzw. dem B1 R-Gen der Ratte (rB1R-Zellen) transfiziert sind. Für funktionelle Untersuchungen werden diese Zellen auf schwarze 96-Loch-Platten mit klarem Boden (BD Biosciences, Heidelberg, DE oder Greiner, Frickenhausen, DE) in einer Dichte von 20.000 - 35.000 Zellen/Loch ausplattiert. Über Nacht werden die Zellen bei 37°C und 5 % CO2 in Kulturmedium (hB1 R-Zellen: Nutrient Mixture Ham's F12, Gibco Invitrogen GmbH, Karlsruhe, Deutschland oder DMEM, Sigma-Aldrich, Taufkirchen, Deutschland; rB1R-Zellen: D-MEM/F12, Gibco Invitrogen GmbH, Karlsruhe, DE) mit 10 Vol-% FBS (Fetal bovine serum, Gibco Invitrogen GmbH, Karlsruhe, DE oder PAN Biotech GmbH, Aidenbach, DE) belassen. Am folgenden Tag werden die Zellen mit 2,13 µM Fluo-4 (Molecular Probes Europe BV, Leiden, NL) in HBSS-Puffer (Hank's buffered saline solution, Gibco Invitrogen GmbH, Karlsruhe, DE) mit 2,5 mM Probenecid (Sigma-Aldrich, Taufkirchen, DE) und 10 mM HEPES (Sigma-Aldrich, Taufkirchen, DE) für 60 min bei 37°C beladen. Anschließend werden die Platten 2 x mit HBSS-Puffer gewaschen und mit HBSS-Puffer versetzt, der zusätzlich 0,1 % BSA (bovines Serumalbumin; Sigma-Aldrich, Taufkirchen, Deutschland), 5,6 mM Glucose und 0,05 % Gelatine (Merck KGaA, Darmstadt, DE) enthält. Nach einer weiteren Inkubation von 20 Minuten bei RT werden die Platten zur Ca^2+-Messung im FLIPR oder Novostar eingesetzt. Alternativ wird mit Puffer A (15 mM HEPES, 80 mM NaCl, 5 mM KCI, 1,2 mM CaCl2, 0,7 mM MgSO4, 2g/L Glucose, 2,5 mM Probenecid) gewaschen und mit Puffer A versetzt mit 2,5 µM Fluo-4 und 0,025 % Pluronic F127 (Sigma-Aldrich, Taufkirchen, DE) beladen. Danach werden die Zellen 2 x mit Puffer A gewaschen und für 30 Minuten mit Puffer A, der zusätzlich 0,05 % BSA und 0,05 % Gelatine enthält bei RT inkubiert und danach zur Ca^2+-Messung im FLIPR oder Novostar eingesetzt.
# Die Ca^2+-abhängige Fluoreszenz wird dabei vor und nach Zugabe von Substanzen gemessen (λex = 488 nm, λem = 540 nm). Die Quantifizierung erfolgt durch die Messung der höchsten Fluoreszenzintensität (FC, Fluorescence Counts) über die Zeit.
# Das FLIPR-Protokoll besteht aus 2 Substanzzugaben, die im FLIPR pipettiert werden. Bei Messungen im Novostar wird nur die zweite Substanzzugabe im Gerät pipettiert. Beide Geräte messen die Fluoreszenzintensität über die Zeit. Zunächst werden Testsubstanzen (10 µM) auf die Zellen pipettiert und der intrazelluläre Ca^2+-Anstieg mit der Kontrolle (hB1 R: Lys-Des-Arg^9-Bradykinin >= 50 nM; rB1 R: Des-Arg^9-Bradykinin >= 1 µM) verglichen. Daraus ergibt sich die Angabe in % Aktivierung bezogen auf das Ca^2+-Signal nach Zugabe von Lys-Des-Arg^9-Bradykinin (>= 50 nM), bzw. Des-Arg^9-Bradykinin (>=1 µM). Nach 6-20 Minuten Inkubation werden Lys-Des-Arg^9-Bradykinin (hB1 R) bzw. […]
row,Molecule,% Inhibierung (human B1R) bei 10 µM
1,"2-[3-[[(2,3-Dichlor-phenyl)sulfonyl]-methyl]-[1,2,4]oxadiazol-5-yl]-N-(1,3,3-trimethyl-piperidin-4-yl)-acetamid [CC-114]",61%
2,"2-[3-[[(2-Chlor-6-methyl-phenyl)sulfonyl]-methyl]-[1,2,4]oxadiazol-5-yl]-N-(3,3-dimethyl-piperidin-4-yl)-acetamid [CC-120]",98%
3,"2-[3-[[(2-Chlor-6-methyl-phenyl)sulfonyl]-methyl]-[1,2,4]oxadiazol-5-yl]-N-(4-dimethylamino-cyclohexyl)-acetamid [CC-128]",99%
4,"2-[3-[[(4-Chlor-2,5-dimethyl-phenyl)sulfonyl]-methyl]-[1,2,4]oxadiazol-5-yl]-N-cyclopropyl-N-(4-dimethylamino-cyclohexyl)-acetamid [CC-113]",90%

# Same assay, conditions: test substance 10 µM; CHO K1 cells stably transfected with human B1R gene (hB1R-Zellen); agonist Lys-Des-Arg9-Bradykinin at EC80; % inhibition relative to maximal achievable inhibition; read-out: % Inhibierung (human B1R) bei 10 µM
row,Molecule,inhibition at 10 µM
1,"COc1cc(C)c(S(=O)(=O)Cc2noc(C(=O)N[C@H]3CCC[C@@H](N4CCN(C)CC4)C3)n2)c(C)c1 [CC-01, 3-[[(4-Methoxy-2,6-dimethyl-phenyl)sulfonyl]-methyl]-N-[(1S,3R)-3-(4-methyl-piperazin-1-yl)-cyclohexyl]-[1,2,4]oxadiazol-5-carbonsäure amid]",100%
2,"COc1cc(C)c(S(=O)(=O)Cc2noc(C(=O)NC3CCN(c4ccc(C(F)(F)F)cn4)CC3)n2)c(C)c1 [CC-02, 3-[[(4-Methoxy-2,6-dimethyl-phenyl)sulfonyl]-methyl]-N-[1-[5-(trifluormethyl)-pyridin-2-yl]-piperidin-4-yl]-[1,2,4]oxadiazol-5-carbonsäure amid]",86%
3,"COc1cc(C)c(S(=O)(=O)Cc2noc(CC(=O)NC3CCN(c4ccc(C(F)(F)F)cn4)CC3)n2)c(C)c1 [CC-03, 2-[3-[[(4-Methoxy-2,6-dimethyl-phenyl)sulfonyl]-methyl]-[1,2,4]oxadiazol-5-yl]-N-[1-[5-(trifluor-methyl)-pyridin-2-yl]-piperidin-4-yl]-acetamid]",91%
4,"COc1cc(C)c(S(=O)(=O)Cc2noc(C(=O)NC3CCC(N(C)C)CC3)n2)c(C)c1 (stereo not shown) [CC-04, N-(4-Dimethylamino-cyclohexyl)-3-[[(4-methoxy-2,6-dimethyl-phenyl)sulfonyl]-methyl]-[1,2,4]oxa-diazol-5-carbonsäure amid]",100%
5,"COc1cc(C)c(S(=O)(=O)Cc2noc(CC(=O)NC3CCC(N(C)C)CC3)n2)c(C)c1 (stereo not shown) [CC-05, N-(4-Dimethylamino-cyclohexyl)-2-[3-[[(4-methoxy-2,6-dimethyl-phenyl)sulfonyl]-methyl]-[1,2,4]oxadiazol-5-yl]-acetamid]",100%
6,"COc1cc(C)c(S(=O)(=O)Cc2noc(CC(=O)N(C)CCC3CCN(c4ccncc4)CC3)n2)c(C)c1 [CC-06, 2-[3-[[(4-Methoxy-2,6-dimethyl-phenyl)sulfonyl]-methyl]-[1,2,4]oxadiazol-5-yl]-N-methyl-N-[2-(1-pyridin-4-yl-piperidin-4-yl)-ethyl]-acetamid]",100%
7,"Cc1cccc(Cl)c1S(=O)(=O)Cc1noc(C(=O)NC2CCN(c3ccc(C(F)(F)F)cn3)CC2)n1 [CC-09, 3-[[(2-Chlor-6-methyl-phenyl)sulfonyl]-methyl]-N-[1-[5-(trifluormethyl)-pyridin-2-yl]-piperidin-4-yl]-[1,2,4]oxadiazol-5-carbonsäure amid]",54%
8,"COc1cc(C)c(S(=O)(=O)Cc2noc(C(=O)N(C)CCC3CCN(c4ccncc4)CC3)n2)c(C)c1 [CC-10, 3-[[(4-Methoxy-2,6-dimethyl-phenyl)sulfonyl]-methyl]-N-methyl-N-[2-(1-pyridin-4-yl-piperidin-4-yl)-ethyl]-[1,2,4]oxadiazol-5-carbonsäure amid]",100%
9,"Cc1cccc(Cl)c1S(=O)(=O)Cc1noc(C(=O)NC2CCC(N(C)C)CC2)n1 (stereo not shown) [CC-11, 3-[[(2-Chlor-6-methyl-phenyl)sulfonyl]-methyl]-N-(4-dimethylamino-cyclohexyl)-[1,2,4]oxadiazol-5-carbonsäure amid]",95%

# Reference: patent EP2857388A1, “Azoles containing sulfone” (Grünenthal GmbH, priority 2013, dated 2015)
